Assay results taken from patent US20090227619A1, “Harmine derivatives, intermediates used in their preparations, preparation processes and use therefo” (priority 2003, published 2009).
“And” between values parts separate entries of the source, which are not always exact repeats. Equal entries are not always repeated. Where two headings read alike, the source gives them in different places. One block for each compound: values may come before it.

Experiments:
HepG2 = experiment: In vitro cytotoxicity, IC50 by MTT method, HepG2; type: cell-based, human
Procedure, shortened: (§1)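 MTT viability, 48 h exposure: cells 10^5/ml in RPMI1640 + 10% FBS, 37 °C/5% CO2; MTT 4 h, DMSO solubilisation, A490.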

PLA-801 = experiment: In vitro cytotoxicity, IC50 by MTT method, PLA-801; type: cell-based
Procedure, shortened: as §1

Bel-7402 = experiment: In vitro cytotoxicity, IC50 by MTT method, Bel-7402; type: cell-based
Procedure, shortened: as §1

BGC-823 = experiment: In vitro cytotoxicity, IC50 by MTT method, BGC-823; type: cell-based
Procedure, shortened: as §1

Hela = experiment: In vitro cytotoxicity, IC50 by MTT method, Hela; type: cell-based
Procedure, shortened: as §1

Lovo = experiment: In vitro cytotoxicity, IC50 by MTT method, Lovo; type: cell-based
Procedure, shortened: as §1

NIH3T3 = experiment: In vitro cytotoxicity, IC50 by MTT method, NIH3T3; type: cell-based
Procedure, shortened: as §1

[1] = Solubility (physico-chemical data tables); settings: qualitative
CT-DNA [2] = experiment: UV absorption spectrum method with CT-DNA; type: binding; settings: CT-DNA 40 ug/ml, compound 20 uM, 37° C. for 2 h, OD at 260 nm
Method: Compounds to be tested (20 uM) were added into the PE buffer solution, and its scan curve was identified by the spectrograph at a wavelength of from 200 to 400 nm. CT-DNA (40 ug/ml) and compounds to be tested (20 uM) were added into the PE buffer solution. The mixture was cultured at 37° C. for 2 h, and its scan curve was identified by the UV spectrograph at a wavelength of from 200 to 400 nm. […] After that, the OD value at 260 nm of the scan curve of the medicaments tested and that of the CT-DNA mixture OD value at 260 nm of the scan curve were calculated and compared to determine the influences of the medicaments tested on the UV absorption spectrum of the DNA molecules.

CT-DNA [3] = experiment: DNA thermal denaturation, determination of ΔTm; type: binding; settings: CT-DNA thermal denaturation; 20 uM compound; Tm of CT-DNA alone 61° C.
Method: Experiments were carried out in PE buffer (1 mM Na2HPO4, 0.1 mM EDTA, pH 7.6) in a thermostatically controlled cell hold, and the quartz cuvette (1 cm path length) was heated by circulating water at a heating rate of 0.5° C./min from 25 to 95° C. Amsacrine and Doxorubicin Hydrochloride were used as standards. In all cases, the concentration of CT-DNA was 15 ug/ml. The ‘melting’ temperature Tm was taken as the mid-point of the hyperchromic transition.
ΔTm=Tm^drug-DNA complex−Tm^DNA alone
The ΔTm of each compound was calculated, Experiments were repeated three times, and an average value was calculated.

Lewis lung cancer = settings: comparison table 43, in vivo, Lewis lung cancer;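 note: mice implanted subcutaneously in the axilla with Lewis lung tumor cells, treated starting the following day, killed roughly three weeks after implantation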
S180 sarcoma = settings: comparison table 43, in vivo, S180 sarcoma
Source text: There was one group of 8 to 10 mice C57BL/6 and Kunming mice for the anti-tumor tests and two groups of mice for negative control.
(3) Sources of tumors: Lewis lung cancer cells and S180 sarcoma in mice, which were sub-cultured and maintained by Pharmacological Center of Shanghai Pharmaceutical Industrial Research Institute.
All samples were weighed and added a small amount of Tween-80 to facilitate dissolution during the experiment, and then 0.5% CMC-Na solution was gradually added to achieve the desired concentration. The volume for experiment was 0.5 ml/20 g mouse.
The medicaments were intraperitoneally administered once a day continuously for 10 days.
For the negative control group, a vehicle of the same volume was intraperitoneally administered once a day continuously for 10 days. For the positive control group, CTX was administered in the dosage of 30 mg/kg once a day continuously for 7 days.
In vivo anti-tumor subcutaneous vaccination in the axilla was employed. Wildly grown tumor source was taken under sterile conditions to form a cell suspension of about 1×10^7 ml by homogenization method. For a corresponding mouse host, the suspension was injected in the axilla in an amount of 0.2 ml/mouse. The next day, the medicaments were administered according to the design of the tests. About three weeks later, all the groups of animals were executed. The tumors were taken from the animals and weighed. The inhibition rate of tumors was calculated according to the following formula:
T: average tumor weight of treated group; C: average tumor weight of negative control group.

[4] = HepG2 cell strain, read-out: IC50 HepG2
[5] = PLA-801 cell strain, read-out: IC50 PLA-801
[6] = Bel7402 cell strain, read-out: IC50 Bel7402
[7] = BGC823 cell strain, read-out: IC50 BGC823
[8] = Hela cell strain, read-out: IC50 Hela
[9] = Lovo cell strain, read-out: IC50 Lovo
[10] = NIH3T3 cell strain, read-out: IC50 NIH3T3
[11] = Table 15, 1,3,9-substituted β-carboline derivatives
[12] = Homo sapiens, HepG2 cell strain, read-out: IC50 HepG2
[13] = Homo sapiens, Bel-7402, Bel7402 cell strain, read-out: IC50 Bel7402
[14] = Homo sapiens, BGC-823, BGC823 cell strain, read-out: IC50 BGC823
[15] = Homo sapiens, Hela cell strain, read-out: IC50 Hela
[16] = Homo sapiens, Lovo cell strain, read-out: IC50 Lovo
[17] = Mus musculus, NIH3T3 cell strain, read-out: IC50 NIH3T3

SMILES: O=C(Cn1c2ccccc2c2cc(C(=O)O)ncc21)c1ccccc1 [Compound 50, 9-acetophenone-β-carboline-3-carboxylic acid]
- IC50 (HepG2; [4]): 90 µM
- IC50 (PLA-801; [5]): 140 µM
- IC50 (Bel-7402; [6]): 140 µM
- IC50 (BGC-823; [7]): 60 µM
- IC50 (Hela; [8]): 70 µM
- IC50 (Lovo; [9]): 70 µM
- IC50 (NIH3T3; [10]): 50 µM
- Solubility ([1]; Table 12, 3,9-disubstituted β-carboline derivatives): soluble in DMSO

SMILES: Cc1nc(C(=O)O)cc2c3ccccc3n(CC(=O)c3ccccc3)c12 [Compound 67, 9-acetophenone-1-methyl-β-carboline-3-carboxylic acid]
- IC50 (HepG2; [4]): 2230 µM
- IC50 (PLA-801; [5]): 2000 µM
- IC50 (Bel-7402; [6]): > 3000 µM
- IC50 (BGC-823; [7]): 1520 µM
- IC50 (Hela; [8]): 2480 µM
- IC50 (Lovo; [9]): 1340 µM
- IC50 (NIH3T3; [10]): 1460 µM
- Solubility [1, 11]: soluble in DMSO

SMILES: Cc1nc(C(=O)O)cc2c3ccccc3n(Cc3c(F)c(F)c(F)c(F)c3F)c12 [Compound 66, 9-(2′,3′,4′,5′,6′-pentafluoro)benzyl-1-methyl-β-carboline-3-carboxylic acid]
- IC50 (HepG2; [4]): 120 µM
- IC50 (PLA-801; [5]): 190 µM
- IC50 (Bel-7402; [6]): 120 µM
- IC50 (BGC-823; [7]): 160 µM
- IC50 (Hela; [8]): 110 µM
- IC50 (Lovo; [9]): 80 µM
- IC50 (NIH3T3; [10]): 80 µM
- Influence on the UV absorption of DNA (CT-DNA [2]): increase the UV absorption of DNA
- Solubility [1, 11]: soluble in DMSO

SMILES: CCCc1nc(C(=O)O)cc2c3ccccc3n(Cc3ccccc3)c12 [Compound 74, 9-benzyl-1-propyl-β-carboline-3-carboxylic acid]
- IC50 (HepG2; [12]): 170 µM
- IC50 (PLA-801; [5]): 270 µM
- IC50 (Bel-7402; [13]): 180 µM
- IC50 (BGC-823; [14]): 270 µM
- IC50 (Hela; [15]): 160 µM
- IC50 (Lovo; [16]): 140 µM
- IC50 (NIH3T3; [17]): 160 µM
- melting point: 193 to 194 °C
- Solubility [1, 11]: soluble in DMSO

SMILES: Cc1nc(C(=O)O)cc2c3ccccc3n(Cc3ccccc3)c12 [Compound 64, 9-benzyl-1-methyl-β-carboline-3-carboxylic acid]
- IC50 (HepG2; [12]): 280 µM
- IC50 (PLA-801; [5]): 410 µM
- IC50 (Bel-7402; [13]): 690 µM
- IC50 (BGC-823; [14]): 280 µM
- IC50 (Hela; [15]): 370 µM
- IC50 (Lovo; [16]): 200 µM
- IC50 (NIH3T3; [17]): 140 µM
- melting point: 246 to 248 °C
- Solubility [1, 11]: soluble in DMSO

SMILES: COc1ccc2c(c1)[nH]c1c(C)nccc12 [Compound 1, reference compound]
- IC50 (HepG2; Homo sapiens, HepG2): 50 µM
- IC50 (PLA-801): 50 µM
- IC50 (Bel-7402; Homo sapiens, Bel-7402): 20 µM
- IC50 (BGC-823; Homo sapiens, BGC-823): 70 µM
- IC50 (Hela; Homo sapiens, HeLa): 60 µM
- IC50 (Lovo; Homo sapiens, LoVo): 70 µM
- IC50 (NIH3T3; Mus musculus, NIH3T3): 60 µM
- ΔTm (CT-DNA [3]): 8.5 °C
- Influence on the UV absorption of DNA (CT-DNA [2]): reduce the UV absorption of DNA
- Inhibition rate (%) Lewis cancer (Lewis lung cancer): 34.1%
- Inhibition rate (%) S180 sarcomata (S180 sarcoma): 15.3%

Continued, in another order:

- melting point: 194 to 195 °C
- Solubility [1, 11]: soluble in DMSO
SMILES: CCn1c2ccccc2c2cc(C(=O)O)nc(-c3ccccc3)c21 [Compound 79, 9-ethyl-1-phenyl-β-carboline-3-carboxylic acid]
- IC50 (HepG2; [12]): 160 µM
- IC50 (PLA-801; [5]): 110 µM
- IC50 (Bel-7402; [13]): 140 µM
- IC50 (BGC-823; [14]): 250 µM
- IC50 (Hela; [15]): 140 µM
- IC50 (Lovo; [16]): 100 µM
- IC50 (NIH3T3; [17]): 120 µM

- melting point: 78 to 79 °C
SMILES: CCCCn1c2ccccc2c2ccncc21 [Compound 83, 9-n-butyl-β-carboline]
- IC50 (HepG2; [12]): 100 µM
- IC50 (PLA-801; [5]): 130 µM
- IC50 (Bel-7402; [13]): 160 µM
- IC50 (BGC-823; [14]): 100 µM
- IC50 (Hela; [15]): 90 µM
- IC50 (Lovo; [16]): 130 µM
- IC50 (NIH3T3; [17]): 80 µM
- ΔTm (CT-DNA [3]): 2.4 °C
- Influence on the UV absorption of DNA (CT-DNA [2]): reduce the UV absorption of DNA

- melting point: 223 to 234 °C and 223 to 224 °C
- Solubility [1, 11]: soluble in DMSO
SMILES: Cn1c2ccccc2c2cc(C(=O)O)nc(-c3ccccc3)c21 [Compound 78, 9-methyl-1-phenyl-β-carboline-3-carboxylic acid]
- IC50 (HepG2; [12]): 160 µM
- IC50 (PLA-801; [5]): 650 µM
- IC50 (Bel-7402; [13]): 280 µM
- IC50 (BGC-823; [14]): 210 µM
- IC50 (Hela; [15]): 170 µM
- IC50 (Lovo; [16]): 110 µM
- IC50 (NIH3T3; [17]): 150 µM
